How the values were obtained:
Experiment in all cases: SelectScreen kinase profiling, SSBK LanthaScreen Binding SP Technology
[1] = target: kinase named in conditions (Homo sapiens, UniProt Q9Y2K2); conditions: SIK3, 10 μM
Experimental: (§1) Kinase selectivity screening was performed by Thermo Fisher Scientific (Paisley, U.K.) in their SelectScreen Biochemical Kinase Profiling Service. Assay information and data are presented in the Supporting Information.
(§2) Kinase selectivity screening was performed by ThermoFisher Scientific (Paisley, U.K.) in their SelectScreenTM
(§3) Biochemical Kinase Profiling service .
(§4) Illustration reproduced courtesy of Cell Signaling technology, Inc.
(§5) (B) Illustration of phylogenetic tree of kinases screened.

[2] = target: kinase named in conditions (Homo sapiens, UniProt Q9UM73, R1275Q); conditions: ALK R1275Q, 10 μM
Experimental: as §1, §2, §3, §4, §5

[3] = target: kinase named in conditions (Homo sapiens, UniProt Q00535); conditions: CDK5 (Inactive), 10 μM
Experimental: as §1, §2, §3, §4, §5

[4] = target: kinase named in conditions (Homo sapiens, UniProt Q16513); conditions: PKN2 (PRK2), 10 μM
Experimental: as §1, §2, §3, §4, §5

[5] = target: kinase named in conditions (Homo sapiens, UniProt Q09013); conditions: DMPK, 10 μM
Experimental: as §1, §2, §3, §4, §5

[6] = target: kinase named in conditions (Homo sapiens, UniProt Q9H2G2); conditions: SLK, 10 μM
Experimental: as §1, §2, §3, §4, §5

[7] = target: kinase named in conditions (Homo sapiens, UniProt Q9UPZ9); conditions: ICK, 10 μM
Experimental: as §1, §2, §3, §4, §5

[8] = target: kinase named in conditions (Homo sapiens, UniProt P57058); conditions: HUNK, 10 μM
Experimental: as §1, §2, §3, §4, §5

[9] = target: kinase named in conditions (Homo sapiens, UniProt P45983); conditions: MAPK8 (JNK1), 10 μM
Experimental: as §1, §2, §3, §4, §5

[10] = target: kinase named in conditions (Homo sapiens, UniProt Q9UM73, L1196M); conditions: ALK L1196M, 10 μM
Experimental: as §1, §2, §3, §4, §5

[11] = target: kinase named in conditions (Homo sapiens, UniProt P22694); conditions: PRKACB (PRKAC beta), 10 μM
Experimental: as §1, §2, §3, §4, §5

[12] = target: kinase named in conditions (Homo sapiens, UniProt Q04771); conditions: ACVR1 (ALK2), 10 μM
Experimental: as §1, §2, §3, §4, §5

[13] = target: kinase named in conditions (Homo sapiens, UniProt Q9H4A3); conditions: WNK1, 10 μM
Experimental: as §1, §2, §3, §4, §5

[14] = target: kinase named in conditions (Homo sapiens, UniProt Q08345); conditions: DDR1, 10 μM
Experimental: as §1, §2, §3, §4, §5

[15] = target: kinase named in conditions (Homo sapiens, UniProt Q16584); conditions: MAP3K11 (MLK3), 10 μM
Experimental: as §1, §2, §3, §4, §5

[16] = target: kinase named in conditions (Homo sapiens, UniProt Q9NRM7); conditions: LATS2, 10 μM
Experimental: as §1, §2, §3, §4, §5

[17] = target: kinase named in conditions (Homo sapiens, UniProt Q9UIK4); conditions: DAPK2, 10 μM
Sequence of kinase named in conditions (Homo sapiens, UniProt Q9UIK4) (Q9UIK4 whole entry): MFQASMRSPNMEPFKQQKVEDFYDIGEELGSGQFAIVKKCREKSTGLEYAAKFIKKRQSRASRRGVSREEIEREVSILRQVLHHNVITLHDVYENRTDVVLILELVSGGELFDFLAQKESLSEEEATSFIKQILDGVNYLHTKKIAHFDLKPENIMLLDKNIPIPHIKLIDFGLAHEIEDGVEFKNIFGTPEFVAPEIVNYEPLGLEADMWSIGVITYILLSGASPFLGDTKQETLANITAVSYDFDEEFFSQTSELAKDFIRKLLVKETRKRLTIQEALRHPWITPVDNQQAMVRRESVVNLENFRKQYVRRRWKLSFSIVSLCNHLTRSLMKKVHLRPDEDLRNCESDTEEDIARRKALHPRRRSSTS
Experimental: as §1, §2, §3, §4, §5

[18] = target: kinase named in conditions (Homo sapiens, UniProt Q12866, A708S); conditions: MERTK (cMER) A708S, 10 μM
Experimental: as §1, §2, §3, §4, §5

[19] = target: kinase named in conditions (Homo sapiens, UniProt Q92918); conditions: MAP4K1 (HPK1), 10 μM
Experimental: as §1, §2, §3, §4, §5

[20] = target: kinase named in conditions (Homo sapiens, UniProt P07949, V804M); conditions: RET V804M, 10 μM
Sequence of kinase named in conditions (Homo sapiens, UniProt P07949, V804M) (P07949 29-1114 V804M): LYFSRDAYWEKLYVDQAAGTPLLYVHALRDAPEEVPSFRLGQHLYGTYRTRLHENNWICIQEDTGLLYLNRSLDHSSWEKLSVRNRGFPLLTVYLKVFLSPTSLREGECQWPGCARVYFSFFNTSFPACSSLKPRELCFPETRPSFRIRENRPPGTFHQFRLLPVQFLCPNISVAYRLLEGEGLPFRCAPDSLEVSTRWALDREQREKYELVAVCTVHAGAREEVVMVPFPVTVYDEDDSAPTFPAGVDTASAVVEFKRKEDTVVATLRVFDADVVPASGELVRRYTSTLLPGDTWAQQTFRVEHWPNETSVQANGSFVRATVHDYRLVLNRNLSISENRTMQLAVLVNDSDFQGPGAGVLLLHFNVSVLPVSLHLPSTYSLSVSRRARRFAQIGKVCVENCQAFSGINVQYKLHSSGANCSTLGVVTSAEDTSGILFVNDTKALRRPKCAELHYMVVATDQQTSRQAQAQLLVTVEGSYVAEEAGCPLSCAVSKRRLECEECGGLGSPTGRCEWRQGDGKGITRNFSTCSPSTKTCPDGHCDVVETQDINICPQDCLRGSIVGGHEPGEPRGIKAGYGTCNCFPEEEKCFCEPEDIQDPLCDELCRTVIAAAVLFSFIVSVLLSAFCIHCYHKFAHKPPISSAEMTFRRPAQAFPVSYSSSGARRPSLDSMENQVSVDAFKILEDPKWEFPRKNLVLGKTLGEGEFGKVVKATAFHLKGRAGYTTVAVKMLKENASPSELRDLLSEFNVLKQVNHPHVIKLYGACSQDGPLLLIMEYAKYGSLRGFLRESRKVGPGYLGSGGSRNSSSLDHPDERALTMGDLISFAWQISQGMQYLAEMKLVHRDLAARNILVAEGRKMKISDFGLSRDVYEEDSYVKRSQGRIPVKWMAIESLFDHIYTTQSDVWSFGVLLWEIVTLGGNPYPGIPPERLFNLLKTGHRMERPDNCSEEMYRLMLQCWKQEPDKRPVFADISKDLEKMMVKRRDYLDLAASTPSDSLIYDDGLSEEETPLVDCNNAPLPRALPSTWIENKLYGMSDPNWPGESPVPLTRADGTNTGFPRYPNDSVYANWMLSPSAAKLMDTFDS
Experimental: as §1, §2, §3, §4, §5

[21] = target: kinase named in conditions (Homo sapiens, UniProt P08581, D1228H); conditions: MET D1228H, 10 μM
Experimental: as §1, §2, §3, §4, §5

[22] = target: kinase named in conditions (Homo sapiens, UniProt Q2M2I8); conditions: AAK1, 10 μM
Sequence of kinase named in conditions (Homo sapiens, UniProt Q2M2I8) (Q2M2I8 whole entry): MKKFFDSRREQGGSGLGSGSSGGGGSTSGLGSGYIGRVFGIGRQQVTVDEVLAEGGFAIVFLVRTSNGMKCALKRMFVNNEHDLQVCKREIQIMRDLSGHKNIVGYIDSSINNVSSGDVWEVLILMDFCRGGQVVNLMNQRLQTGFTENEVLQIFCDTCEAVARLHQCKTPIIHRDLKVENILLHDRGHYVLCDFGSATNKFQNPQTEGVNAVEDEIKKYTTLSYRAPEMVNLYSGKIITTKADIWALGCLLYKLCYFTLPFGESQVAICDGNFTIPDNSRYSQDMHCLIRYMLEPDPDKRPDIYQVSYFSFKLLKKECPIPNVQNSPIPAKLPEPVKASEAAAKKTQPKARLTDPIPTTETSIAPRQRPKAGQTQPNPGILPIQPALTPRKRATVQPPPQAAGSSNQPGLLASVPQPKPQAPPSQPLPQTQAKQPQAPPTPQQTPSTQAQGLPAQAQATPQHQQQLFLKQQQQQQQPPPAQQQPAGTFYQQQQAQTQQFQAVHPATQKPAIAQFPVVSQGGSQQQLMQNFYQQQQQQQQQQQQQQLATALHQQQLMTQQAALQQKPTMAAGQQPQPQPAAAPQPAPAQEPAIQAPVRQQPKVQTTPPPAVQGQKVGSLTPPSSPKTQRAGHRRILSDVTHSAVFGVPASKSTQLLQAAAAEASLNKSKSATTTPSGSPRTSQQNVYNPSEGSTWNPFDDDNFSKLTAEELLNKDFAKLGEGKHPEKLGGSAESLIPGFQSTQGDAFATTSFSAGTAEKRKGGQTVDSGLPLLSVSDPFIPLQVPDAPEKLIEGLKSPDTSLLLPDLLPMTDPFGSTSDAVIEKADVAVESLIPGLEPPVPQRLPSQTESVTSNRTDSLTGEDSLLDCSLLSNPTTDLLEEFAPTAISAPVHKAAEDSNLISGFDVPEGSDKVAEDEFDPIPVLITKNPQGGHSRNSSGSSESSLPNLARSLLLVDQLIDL
Experimental: as §1, §2, §3, §4, §5

[23] = target: kinase named in conditions (Homo sapiens, UniProt Q99640); conditions: PKMYT1, 10 μM
Experimental: as §1, §2, §3, §4, §5

[24] = target: kinase named in conditions (Homo sapiens, UniProt Q13163); conditions: MAP2K5 (MEK5), 10 μM
Sequence of kinase named in conditions (Homo sapiens, UniProt Q13163) (Q13163 whole entry): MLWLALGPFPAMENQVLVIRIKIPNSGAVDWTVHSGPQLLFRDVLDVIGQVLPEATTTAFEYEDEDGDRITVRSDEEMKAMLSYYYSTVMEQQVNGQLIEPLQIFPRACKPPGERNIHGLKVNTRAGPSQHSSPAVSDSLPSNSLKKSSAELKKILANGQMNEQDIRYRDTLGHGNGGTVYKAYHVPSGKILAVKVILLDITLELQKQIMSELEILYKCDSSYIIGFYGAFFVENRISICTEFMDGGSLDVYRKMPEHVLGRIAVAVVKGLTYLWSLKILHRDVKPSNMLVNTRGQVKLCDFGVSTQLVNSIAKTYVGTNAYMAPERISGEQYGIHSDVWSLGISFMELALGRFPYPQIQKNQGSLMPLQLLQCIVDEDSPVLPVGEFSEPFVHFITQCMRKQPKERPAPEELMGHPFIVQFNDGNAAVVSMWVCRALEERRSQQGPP
Experimental: as §1, §2, §3, §4, §5

[25] = target: kinase named in conditions (Homo sapiens, UniProt Q02763, Y1108F); conditions: TEK (TIE2) Y1108F, 10 μM
Experimental: as §1, §2, §3, §4, §5

[26] = target: kinase named in conditions (Homo sapiens, UniProt P04049, Y340D/Y341D); conditions: RAF1 (cRAF) Y340D Y341D, 10 μM
Experimental: as §1, §2, §3, §4, §5

[27] = target: kinase named in conditions (Homo sapiens, UniProt P07949, M918T); conditions: RET M918T, 10 μM
Experimental: as §1, §2, §3, §4, §5

[28] = target: kinase named in conditions (Homo sapiens, UniProt Q9UM73, C1156Y); conditions: ALK C1156Y, 10 μM
Experimental: as §1, §2, §3, §4, §5

[29] = target: kinase named in conditions (Homo sapiens, UniProt Q15746); conditions: MYLK (MLCK), 10 μM
Experimental: as §1, §2, §3, §4, §5

[30] = target: kinase named in conditions (Homo sapiens, UniProt Q7L7X3); conditions: TAOK1, 10 μM
Experimental: as §1, §2, §3, §4, §5

[31] = target: kinase named in conditions (Homo sapiens, UniProt P10721, D816V); conditions: KIT D816V, 10 μM
Experimental: as §1, §2, §3, §4, §5

[32] = target: kinase named in conditions (Homo sapiens, UniProt Q9Y2H1); conditions: STK38L (NDR2), 10 μM
Sequence of kinase named in conditions (Homo sapiens, UniProt Q9Y2H1) (Q9Y2H1 whole entry): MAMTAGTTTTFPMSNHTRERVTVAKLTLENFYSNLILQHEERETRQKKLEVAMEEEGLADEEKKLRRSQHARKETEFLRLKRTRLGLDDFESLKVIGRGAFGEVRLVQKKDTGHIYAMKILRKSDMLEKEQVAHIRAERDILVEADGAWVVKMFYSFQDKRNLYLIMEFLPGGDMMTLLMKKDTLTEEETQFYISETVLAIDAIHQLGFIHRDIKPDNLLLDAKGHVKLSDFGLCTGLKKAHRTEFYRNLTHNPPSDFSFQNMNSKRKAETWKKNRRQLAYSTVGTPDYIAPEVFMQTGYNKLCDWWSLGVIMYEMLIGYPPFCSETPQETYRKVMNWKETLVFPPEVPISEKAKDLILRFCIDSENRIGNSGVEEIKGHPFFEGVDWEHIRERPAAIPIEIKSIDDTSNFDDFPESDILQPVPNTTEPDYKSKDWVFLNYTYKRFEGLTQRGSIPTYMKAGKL
Experimental: as §1, §2, §3, §4, §5

[33] = target: kinase named in conditions (Homo sapiens, UniProt P49336); conditions: CDK8/cyclin C, 10 μM
Experimental: as §1, §2, §3, §4, §5

[34] = target: kinase named in conditions (Homo sapiens, UniProt P36507); conditions: MAP2K2 (MEK2), 10 μM
Sequence of kinase named in conditions (Homo sapiens, UniProt P36507) (P36507 whole entry): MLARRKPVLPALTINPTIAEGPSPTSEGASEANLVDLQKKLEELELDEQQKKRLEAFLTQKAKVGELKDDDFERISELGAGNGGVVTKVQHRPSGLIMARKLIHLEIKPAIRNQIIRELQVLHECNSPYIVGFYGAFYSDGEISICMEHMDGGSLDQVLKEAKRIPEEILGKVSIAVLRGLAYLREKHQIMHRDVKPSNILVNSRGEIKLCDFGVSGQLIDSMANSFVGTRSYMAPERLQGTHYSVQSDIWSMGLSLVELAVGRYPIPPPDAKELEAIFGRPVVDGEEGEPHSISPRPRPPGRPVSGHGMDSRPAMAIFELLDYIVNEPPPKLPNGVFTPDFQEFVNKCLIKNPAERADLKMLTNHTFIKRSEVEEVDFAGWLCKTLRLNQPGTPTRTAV
Experimental: as §1, §2, §3, §4, §5

Sequence of kinase named in conditions (Homo sapiens, UniProt Q9Y2K2) (Q9Y2K2 whole entry): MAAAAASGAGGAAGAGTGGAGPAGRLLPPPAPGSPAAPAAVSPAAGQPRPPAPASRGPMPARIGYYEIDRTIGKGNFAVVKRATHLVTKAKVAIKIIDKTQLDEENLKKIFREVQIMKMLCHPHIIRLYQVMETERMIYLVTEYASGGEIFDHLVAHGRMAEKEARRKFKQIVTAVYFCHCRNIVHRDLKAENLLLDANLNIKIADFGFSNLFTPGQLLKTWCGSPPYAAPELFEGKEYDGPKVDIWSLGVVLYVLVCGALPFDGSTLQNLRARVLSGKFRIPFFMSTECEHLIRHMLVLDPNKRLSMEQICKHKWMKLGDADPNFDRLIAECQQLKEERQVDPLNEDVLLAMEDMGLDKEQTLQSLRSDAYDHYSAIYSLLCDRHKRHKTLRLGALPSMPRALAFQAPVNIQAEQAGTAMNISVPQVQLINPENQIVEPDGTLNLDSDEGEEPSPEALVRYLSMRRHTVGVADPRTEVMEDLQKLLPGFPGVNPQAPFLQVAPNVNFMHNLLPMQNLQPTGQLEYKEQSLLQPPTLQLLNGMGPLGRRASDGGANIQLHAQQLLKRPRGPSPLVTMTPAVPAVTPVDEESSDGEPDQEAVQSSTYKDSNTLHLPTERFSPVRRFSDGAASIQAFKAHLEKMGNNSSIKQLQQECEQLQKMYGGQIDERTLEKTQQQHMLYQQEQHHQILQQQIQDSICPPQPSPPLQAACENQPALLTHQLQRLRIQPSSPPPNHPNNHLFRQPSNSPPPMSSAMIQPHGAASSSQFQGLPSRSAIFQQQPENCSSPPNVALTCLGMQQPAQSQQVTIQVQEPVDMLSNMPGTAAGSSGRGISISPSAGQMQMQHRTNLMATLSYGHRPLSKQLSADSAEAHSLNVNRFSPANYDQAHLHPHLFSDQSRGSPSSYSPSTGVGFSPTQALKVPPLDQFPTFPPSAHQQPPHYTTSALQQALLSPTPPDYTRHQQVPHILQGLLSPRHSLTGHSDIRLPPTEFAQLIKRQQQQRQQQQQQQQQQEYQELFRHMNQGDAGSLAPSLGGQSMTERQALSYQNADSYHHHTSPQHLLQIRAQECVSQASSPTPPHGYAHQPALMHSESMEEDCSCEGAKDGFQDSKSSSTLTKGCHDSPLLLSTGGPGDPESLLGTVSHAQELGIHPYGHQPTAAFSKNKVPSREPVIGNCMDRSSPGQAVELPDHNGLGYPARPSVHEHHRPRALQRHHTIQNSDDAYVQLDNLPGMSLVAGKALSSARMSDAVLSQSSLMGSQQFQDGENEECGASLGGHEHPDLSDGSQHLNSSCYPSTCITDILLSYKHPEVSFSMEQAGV

Compound `FC(F)(F)c1c(Cl)ccc(-n2ccnn2)c1Cl` [8l, 1-(2,4-Dichloro-3-(trifluoromethyl)phenyl)-1H-1,2,3-triazole] has an inhibition at 10 µM [1] of 4%, an inhibition at 10 µM [2] of -2% and an inhibition at 10 µM [3] of 1%. The inhibition at 10 µM [4] was -4%, the inhibition at 10 µM [5] was 2% and the inhibition at 10 µM [6] was 4%. The inhibition at 10 µM [7] was -6%, the inhibition at 10 µM [8] was 1% and the inhibition at 10 µM [9] was -9%. It also gave an inhibition at 10 µM [10] of -3%, an inhibition at 10 µM [11] of 1% and an inhibition at 10 µM [12] of 12%. For the same compound, the inhibition at 10 µM [13] was 2%, the inhibition at 10 µM [14] was 0% and the inhibition at 10 µM [15] was 3%. The inhibition at 10 µM [16] was 7%, the inhibition at 10 µM [17] was 23% and the inhibition at 10 µM [18] was -3%. It also gave an inhibition at 10 µM [19] of 15%, an inhibition at 10 µM [20] of 8% and an inhibition at 10 µM [21] of -13%. For the same compound, the inhibition at 10 µM [22] was 1%, the inhibition at 10 µM [23] was 0% and the inhibition at 10 µM [24] was -6%. It also gave an inhibition at 10 µM [25] of -9%, an inhibition at 10 µM [26] of -3% and an inhibition at 10 µM [27] of 9%. It also gave an inhibition at 10 µM [28] of 4%, an inhibition at 10 µM [29] of 3% and an inhibition at 10 µM [30] of 0%. It also gave an inhibition at 10 µM [31] of 26%, an inhibition at 10 µM [32] of 15% and an inhibition at 10 µM [33] of 18%. It also gave an inhibition at 10 µM [34] of 5%.
